Data taken from patent US6632975B1, “Method for the production of in vivo model of hepatocellular carcinoma without lung metastasis” (Kabushiki Kaisha Daiyu-Kai Institute of Medical Science, priority 2000, dated 2003).

Test system: F344 Fisher rats
Assay: Production of in vivo lung metastatic hepatoma model: incidences of hepatocellular carcinoma and lung metastasis, survival (Example 1)
Parameters: species or system rat
Description: Animals used in this example were F344 Fisher rats (purchased from Charles River Japan Inc.).
Diethylnitrosoamine (hereinafter, referred to as “DEN”) and nitrosomorpholine (hereinafter, referred to as “NMOR”) were purchased from Tokyo Kasei Kogyo Co., Ltd.
DEN was diluted with physiological saline, and intraperitoneally injected in animals at a dose of 100 mg/kg body weight, or it was diluted with tap water to make the concentration of 50 ppm and administered via drinking water feeding bottle. NMOR was diluted with tap water to make the concentration of 120 ppm, and administered via a drinking water feeding bottle.
Animals were divided into four groups and treated as follows: Animals of the first group were given 50 ppm of DEN in drinking water for 16 weeks, and were sacrificed and subjected to autopsy in week 16. Animals of the second group were given 100 mg/kg body weight of DEN via intraperitoneal injection at the start of the experiment, and were sacrificed and subjected to autopsy in week 22. Animals of the third group were given 120 ppm of NMOR in drinking water for 22 weeks, and were sacrificed and subjected to autopsy in week 22. Animals of the fourth group were given 100 mg/kg body weight of DEN via intraperitoneal injection at the start of the experiment were given NMOR from the start to week 22 of the experiment, and were sacrificed and subjected to autopsy in week 22.
Liver and lung as well as other tissues were collected, fixed in formalin and stained with hematoxylin-eosin by the standard method to prepare specimens. Specimens were microscopically examined for presence of hepatocellular carcinoma in the liver and metastatic lesion in the lung to determine incidences of hepatocellular carcinoma and lung metastasis, which are shown in FIG. 1.

[1] = DEN 50 ppm in drinking water for 16 weeks, autopsy week 16
[2] = NMOR 120 ppm in drinking water for 22 weeks, autopsy week 22

Row | SMILES | incidence of hepatoma [1] [%] | lung metastasis [1] | incidence of hepatoma [2] [%] | lung metastasis (animals affected) [2]
1 | CCN(CC)N=O [DEN, Diethylnitrosoamine] | 100 | no lung metastasis was observed |  | 
2 | O=NN1CCOCC1 [NMOR, nitrosomorpholine] |  |  | 100 | only one animal
